Assay results taken from ChEMBL document CHEMBL1201862, “PubChem BioAssay data set” (2004).
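Dose response: 5 concentrations. Exposure: 48 h. Format: 96-well plates. Endpoint: linear interpolation; highest concentration if not reached. GI50: concentration for 50% inhibition of growth.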 Activity calls are given as the source filed them. No stated cut-off is given here; in the data, active = GI50 up to about 1.1 µM and inactive = higher.

Key:
Assay in all cases: inhibition of tumour cell growth, NCI panel, 48 h
[1] = system: 786-0
[2] = system: A498
[3] = system: A549
[4] = system: ACHN
[5] = system: BT-549
[6] = system: CAKI-1
[7] = system: CCRF-CEM
[8] = system: COLO 205
[9] = system: DU-145
[10] = system: EKVX
[11] = system: HCT-116
[12] = system: HCT-15
[13] = system: HL-60
[14] = system: HOP-62
[15] = system: HT-29
[16] = system: Hs-578T
[17] = system: IGROV-1
[18] = system: K562
[19] = system: KM12
[20] = system: LOX IMVI
[21] = system: M14
[22] = system: MCF7
[23] = system: MDA-MB-231
[24] = system: MDA-MB-435
[25] = system: MDA-N
[26] = system: MOLT-4
[27] = system: NCI-H226
[28] = system: NCI-H23
[29] = system: NCI-H460
[30] = system: NCI-H522
[31] = system: NCI/ADR-RES
[32] = system: OVCAR-3
[33] = system: OVCAR-4
[34] = system: OVCAR-5
[35] = system: OVCAR-8
[36] = system: PC-3
[37] = system: RPMI-8226
[38] = system: RXF 393
[39] = system: SF-268
[40] = system: SF-295
[41] = system: SF-539
[42] = system: SK-MEL-28
[43] = system: SK-MEL-2
[44] = system: SK-MEL-5
[45] = system: SK-OV-3
[46] = system: SN12C
[47] = system: SNB-19
[48] = system: SNB-75
[49] = system: SR
[50] = system: SW-620
[51] = system: T47D
[52] = system: TK-10
[53] = system: U-251
[54] = system: UACC-257
[55] = system: UACC-62
[56] = system: UO-31
[57] = system: HOP-92
[58] = system: Malme-3M
[59] = system: HCC 2998

`CCCCCCCCCCCCCCCC(=O)Nc1ccn(C2CC(OP(=O)(O)OCC3OC(n4cc(F)c(=O)[nH]c4=O)CC3OC(C)=O)C(CO)O2)c(=O)n1` (centres undefined) was tested, and the GI50 [1] was 6.47 µM (inactive), the GI50 [2] was > 35 µM (inactive) and the GI50 [3] was 0.836 µM (active). The GI50 [4] was 0.128 µM (active), the GI50 [5] was 3.18 µM (inactive) and the GI50 [6] was 1.56 µM (inactive). For the same compound, the GI50 [7] was 3.18 µM (inactive), the GI50 [8] was 18.3 µM (inactive) and the GI50 [9] was 3.61 µM (inactive). For the same compound, the GI50 [10] was > 61.2 µM (inactive), the GI50 [11] was 3.84 µM (inactive) and the GI50 [12] was 14.7 µM. The GI50 [13] was 3.94 µM (inactive), the GI50 [14] was 0.351 µM (active) and the GI50 [15] was 7.62 µM (inactive). For the same compound, the GI50 [16] was 12.1 µM (inactive), the GI50 [17] was 23.9 µM (inactive) and the GI50 [18] was 13.3 µM (inactive). For the same compound, the GI50 [19] was 15 µM (inactive), the GI50 [20] was 1.29 µM (inactive) and the GI50 [21] was 11.4 µM (inactive). For the same compound, the GI50 [22] was > 100 µM (inactive), the GI50 [23] was > 43.4 µM (inactive) and the GI50 [24] was 34.7 µM (inactive). For the same compound, the GI50 [25] was 42.5 µM (inactive), the GI50 [26] was 7.55 µM (inactive) and the GI50 [27] was 31.2 µM (inactive). The GI50 [28] was 3.86 µM (inactive), the GI50 [29] was 0.0664 µM (active) and the GI50 [30] was 9.04 µM (inactive). The GI50 [31] was 11.4 µM (inactive), the GI50 [32] was > 53.2 µM (inactive) and the GI50 [33] was 44.7 µM (inactive). For the same compound, the GI50 [34] was > 41.8 µM (inactive), the GI50 [35] was 3.78 µM (inactive) and the GI50 [36] was 7.87 µM (inactive). For the same compound, the GI50 [37] was 3.81 µM (inactive), the GI50 [38] was > 41 µM (inactive) and the GI50 [39] was 0.528 µM (active). For the same compound, the GI50 [40] was 1.81 µM (inactive), the GI50 [41] was 0.07 µM (active) and the GI50 [42] was 30.5 µM (inactive). For the same compound, the GI50 [43] was > 45.1 µM (inactive), the GI50 [44] was 11.5 µM (inactive) and the GI50 [45] was > 21.2 µM (inactive). For the same compound, the GI50 [46] was 6.03 µM (inactive), the GI50 [47] was 2.73 µM (inactive) and the GI50 [48] was 13.7 µM (inactive). For the same compound, the GI50 [49] was 1 µM (active), the GI50 [50] was 22.9 µM (inactive) and the GI50 [51] was 20.8 µM (inactive). The GI50 [52] was > 64 µM (inactive), the GI50 [53] was 15.7 µM (inactive) and the GI50 [54] was > 57.1 µM (inactive). For the same compound, the GI50 [55] was 8.32 µM (inactive) and the GI50 [56] was 0.565 µM (active).
With `O=C(c1ccccc1)c1ccc2[nH]c(-c3c(Cl)c(Cl)c(Cl)c(Cl)c3C(=O)N/N=C/c3cccc(Oc4ccccc4)c3)nc2c1` the GI50 [1] was > 100 µM (inactive), the GI50 [3] was > 100 µM (inactive) and the GI50 [4] was > 100 µM (inactive). For the same compound, the GI50 [5] was 93.8 µM (inactive), the GI50 [6] was > 100 µM (inactive) and the GI50 [7] was 39.6 µM (inactive). The GI50 [8] was > 100 µM (inactive), the GI50 [9] was > 100 µM (inactive) and the GI50 [10] was > 100 µM (inactive). The GI50 [11] was 76.6 µM (inactive), the GI50 [12] was 45.4 µM and the GI50 [13] was 17.6 µM (inactive). For the same compound, the GI50 [14] was 65.2 µM (inactive), the GI50 [57] was 55.7 µM (inactive) and the GI50 [15] was > 100 µM (inactive). The GI50 [16] was > 100 µM (inactive), the GI50 [17] was > 100 µM (inactive) and the GI50 [18] was 46.5 µM (inactive). The GI50 [19] was > 100 µM (inactive), the GI50 [20] was > 100 µM (inactive) and the GI50 [21] was > 100 µM (inactive). For the same compound, the GI50 [22] was 42 µM (inactive), the GI50 [23] was > 100 µM (inactive) and the GI50 [24] was 38.1 µM (inactive). The GI50 [25] was 46.5 µM (inactive), the GI50 [26] was 50.4 µM (inactive) and the GI50 [58] was > 100 µM (inactive). The GI50 [27] was 84.1 µM (inactive), the GI50 [28] was 74.1 µM (inactive) and the GI50 [30] was 45 µM (inactive). The GI50 [31] was 95.1 µM (inactive), the GI50 [32] was 75.7 µM (inactive) and the GI50 [33] was 99.3 µM (inactive). For the same compound, the GI50 [34] was > 100 µM (inactive), the GI50 [35] was 75.2 µM (inactive) and the GI50 [36] was 77.4 µM (inactive). For the same compound, the GI50 [37] was > 100 µM (inactive), the GI50 [38] was 68.2 µM (inactive) and the GI50 [39] was 76.7 µM (inactive). For the same compound, the GI50 [40] was 54.7 µM (inactive), the GI50 [41] was > 100 µM (inactive) and the GI50 [42] was > 100 µM (inactive). For the same compound, the GI50 [43] was 46.2 µM (inactive), the GI50 [44] was 90.6 µM (inactive) and the GI50 [45] was > 100 µM (inactive). The GI50 [46] was > 100 µM (inactive), the GI50 [47] was 69.2 µM (inactive) and the GI50 [48] was 60.8 µM (inactive). The GI50 [49] was 36.3 µM (inactive), the GI50 [50] was 56.1 µM (inactive) and the GI50 [51] was 36.1 µM (inactive). The GI50 [52] was > 100 µM (inactive), the GI50 [53] was 54.7 µM (inactive) and the GI50 [54] was > 100 µM (inactive). The GI50 [56] was > 100 µM (inactive).
In the case of `S=C1SC(=N\c2ccccc2)/C(=N/c2ccccc2)N1c1ccccc1`, the GI50 [2] is reported as > 100 µM (inactive), the GI50 [5] is reported as > 100 µM (inactive) and the GI50 [6] is reported as > 100 µM (inactive). The GI50 [7] was 18.1 µM (inactive), the GI50 [8] was > 100 µM (inactive) and the GI50 [9] was > 100 µM (inactive). The GI50 [59] was > 100 µM (inactive), the GI50 [11] was 83.9 µM (inactive) and the GI50 [12] was > 100 µM. For the same compound, the GI50 [13] was > 10 µM (inactive), the GI50 [14] was 28 µM (inactive) and the GI50 [15] was 87.7 µM (inactive). For the same compound, the GI50 [16] was 27.9 µM (inactive), the GI50 [17] was > 100 µM (inactive) and the GI50 [18] was > 100 µM (inactive). For the same compound, the GI50 [19] was > 100 µM (inactive), the GI50 [21] was > 100 µM (inactive) and the GI50 [22] was > 100 µM (inactive). The GI50 [23] was > 100 µM (inactive), the GI50 [24] was > 100 µM (inactive) and the GI50 [25] was > 100 µM (inactive). For the same compound, the GI50 [26] was > 100 µM (inactive), the GI50 [58] was 45.9 µM (inactive) and the GI50 [27] was > 100 µM (inactive). For the same compound, the GI50 [28] was > 100 µM (inactive), the GI50 [29] was > 100 µM (inactive) and the GI50 [30] was > 100 µM (inactive). The GI50 [31] was > 100 µM (inactive), the GI50 [32] was 34.4 µM (inactive) and the GI50 [33] was 8.53 µM (inactive). The GI50 [34] was > 100 µM (inactive), the GI50 [35] was 93.8 µM (inactive) and the GI50 [36] was > 100 µM (inactive). For the same compound, the GI50 [37] was 31.3 µM (inactive), the GI50 [38] was > 100 µM (inactive) and the GI50 [40] was 34.5 µM (inactive). For the same compound, the GI50 [42] was > 100 µM (inactive), the GI50 [43] was > 100 µM (inactive) and the GI50 [44] was 62.7 µM (inactive). The GI50 [45] was > 100 µM (inactive), the GI50 [46] was > 100 µM (inactive) and the GI50 [47] was > 100 µM (inactive). For the same compound, the GI50 [48] was 19 µM (inactive), the GI50 [49] was > 100 µM (inactive) and the GI50 [51] was > 100 µM (inactive). For the same compound, the GI50 [53] was 90.8 µM (inactive), the GI50 [55] was 22.8 µM (inactive) and the GI50 [56] was > 100 µM (inactive).
